According to ChEMBL document CHEMBL4371033, “Highly Potent and Selective Plasmin Inhibitors Based on the Sunflower Trypsin Inhibitor-1 Scaffold Attenuate Fibrinolysis in Plasma” (J Med Chem, 2019):
Residues, ends and D or L forms follow the SMILES beside them.

Legend:
[1] = Inhibition of bovine trypsin pre-incubated for 60 mins before tos-GPR-AMC substrate addition; parameters: species or system Bos taurus
Trypsin (Sus scrofa) [2] = target: Trypsin (Sus scrofa) (UniProt P00761); test: Inhibition of porcine trypsin assessed as association rate constant using peptide-pNA as substrate
Chain of Trypsin (Sus scrofa) (P00761 whole entry): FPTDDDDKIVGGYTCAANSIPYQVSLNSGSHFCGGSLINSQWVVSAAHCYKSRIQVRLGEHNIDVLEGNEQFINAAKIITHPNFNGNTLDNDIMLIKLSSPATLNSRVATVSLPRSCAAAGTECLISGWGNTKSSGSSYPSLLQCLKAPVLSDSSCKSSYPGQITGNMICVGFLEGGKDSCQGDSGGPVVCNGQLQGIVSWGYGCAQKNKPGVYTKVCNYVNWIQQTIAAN

Coagulation factor XII [3] = target: T1, Coagulation factor XII (Homo sapiens, UniProt P00748); test: Inhibition of human beta-factor 12a using Ac-QRFR-pNA as substrate after 30 mins
T1 sequence (P00748 whole entry): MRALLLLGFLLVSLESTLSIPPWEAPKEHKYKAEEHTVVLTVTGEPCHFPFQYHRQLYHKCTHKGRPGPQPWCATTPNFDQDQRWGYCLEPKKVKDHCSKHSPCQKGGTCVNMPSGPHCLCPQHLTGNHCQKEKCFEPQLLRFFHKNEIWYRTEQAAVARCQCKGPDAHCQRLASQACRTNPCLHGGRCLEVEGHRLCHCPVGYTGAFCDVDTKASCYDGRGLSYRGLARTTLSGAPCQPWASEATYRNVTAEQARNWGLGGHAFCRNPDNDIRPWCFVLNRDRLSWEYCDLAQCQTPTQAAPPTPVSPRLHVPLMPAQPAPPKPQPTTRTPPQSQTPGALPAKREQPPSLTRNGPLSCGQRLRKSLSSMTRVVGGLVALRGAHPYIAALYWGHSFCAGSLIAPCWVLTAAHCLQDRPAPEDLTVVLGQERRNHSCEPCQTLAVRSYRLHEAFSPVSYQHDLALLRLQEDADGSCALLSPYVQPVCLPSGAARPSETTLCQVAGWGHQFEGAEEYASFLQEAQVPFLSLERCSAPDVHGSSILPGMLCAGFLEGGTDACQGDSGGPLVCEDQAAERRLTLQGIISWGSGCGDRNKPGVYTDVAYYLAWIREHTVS

[4] = target: T2, Suppressor of tumorigenicity 14 protein (Homo sapiens, UniProt Q9Y5Y6); test: Inhibition of recombinant human matriptase catalytic domain pre-incubated for 60 mins before Boc QAR-AMC substrate addition
T2 sequence (Q9Y5Y6 whole entry): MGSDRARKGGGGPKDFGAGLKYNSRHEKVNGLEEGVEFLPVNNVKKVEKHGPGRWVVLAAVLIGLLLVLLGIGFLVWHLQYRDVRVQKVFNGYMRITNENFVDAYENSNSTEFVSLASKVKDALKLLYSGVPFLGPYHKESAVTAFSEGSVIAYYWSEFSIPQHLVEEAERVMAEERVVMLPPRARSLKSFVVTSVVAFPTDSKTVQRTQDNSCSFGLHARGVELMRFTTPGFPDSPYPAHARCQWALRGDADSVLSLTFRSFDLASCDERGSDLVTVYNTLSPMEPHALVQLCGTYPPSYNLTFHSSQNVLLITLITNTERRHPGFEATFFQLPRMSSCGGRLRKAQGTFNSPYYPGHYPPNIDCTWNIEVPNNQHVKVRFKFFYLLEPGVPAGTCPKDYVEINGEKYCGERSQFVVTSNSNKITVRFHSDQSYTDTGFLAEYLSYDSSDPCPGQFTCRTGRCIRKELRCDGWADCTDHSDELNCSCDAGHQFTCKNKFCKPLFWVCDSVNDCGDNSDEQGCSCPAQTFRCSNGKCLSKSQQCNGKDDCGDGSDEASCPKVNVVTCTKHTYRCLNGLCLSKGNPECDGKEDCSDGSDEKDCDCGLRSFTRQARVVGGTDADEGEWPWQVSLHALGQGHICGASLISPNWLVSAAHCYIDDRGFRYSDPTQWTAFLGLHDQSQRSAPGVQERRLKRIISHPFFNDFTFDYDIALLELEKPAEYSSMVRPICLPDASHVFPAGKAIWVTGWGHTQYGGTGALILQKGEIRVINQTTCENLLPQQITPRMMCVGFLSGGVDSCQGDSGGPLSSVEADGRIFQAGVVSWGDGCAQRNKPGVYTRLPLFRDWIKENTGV

Trypsin (Sus scrofa) [5] = target: Trypsin (Sus scrofa) (UniProt P00761); test: Inhibition of porcine trypsin assessed as dissociation rate constant using peptide-pNA as substrate
[6] = target: Tissue-type plasminogen activator (Homo sapiens, UniProt P00750); test: Inhibition of tPA (unknown origin) using Z-Pyr-Gly-Arg-MCA as substrate after 30 mins relative to untreated control
Chain of Tissue-type plasminogen activator (P00750 whole entry): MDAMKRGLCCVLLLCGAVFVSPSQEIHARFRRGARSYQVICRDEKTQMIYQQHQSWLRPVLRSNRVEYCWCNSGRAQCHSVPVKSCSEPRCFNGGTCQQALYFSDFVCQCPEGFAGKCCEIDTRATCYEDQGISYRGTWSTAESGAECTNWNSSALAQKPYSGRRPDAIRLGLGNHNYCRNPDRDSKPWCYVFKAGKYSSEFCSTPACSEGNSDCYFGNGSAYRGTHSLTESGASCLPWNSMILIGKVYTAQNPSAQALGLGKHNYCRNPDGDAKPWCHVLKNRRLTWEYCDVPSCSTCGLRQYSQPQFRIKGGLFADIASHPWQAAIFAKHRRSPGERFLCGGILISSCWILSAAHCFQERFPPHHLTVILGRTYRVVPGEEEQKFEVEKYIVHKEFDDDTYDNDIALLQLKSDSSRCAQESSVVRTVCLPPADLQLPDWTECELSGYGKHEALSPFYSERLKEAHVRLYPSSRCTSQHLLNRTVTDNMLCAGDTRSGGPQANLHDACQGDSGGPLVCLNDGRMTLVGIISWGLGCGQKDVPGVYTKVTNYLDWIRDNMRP

[7] = target: T2, Suppressor of tumorigenicity 14 protein; test: Inhibition of matriptase (unknown origin) using Boc-QAR-MCA as substrate after 30 mins
Coagulation factor IX = Coagulation factor IX (Homo sapiens, UniProt P00740); test: Inhibition of activated beta-factor 9 (unknown origin) using Boc-QGR-MCA as substrate after 30 mins relative to untreated control
Chain of Coagulation factor IX (P00740 47-191 limits assumed): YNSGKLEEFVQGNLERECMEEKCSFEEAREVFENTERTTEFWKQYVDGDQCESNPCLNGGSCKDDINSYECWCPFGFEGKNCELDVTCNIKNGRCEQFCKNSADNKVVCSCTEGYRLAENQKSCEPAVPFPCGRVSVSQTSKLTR
Chain of Coagulation factor IX (P00740 227-461 limits assumed): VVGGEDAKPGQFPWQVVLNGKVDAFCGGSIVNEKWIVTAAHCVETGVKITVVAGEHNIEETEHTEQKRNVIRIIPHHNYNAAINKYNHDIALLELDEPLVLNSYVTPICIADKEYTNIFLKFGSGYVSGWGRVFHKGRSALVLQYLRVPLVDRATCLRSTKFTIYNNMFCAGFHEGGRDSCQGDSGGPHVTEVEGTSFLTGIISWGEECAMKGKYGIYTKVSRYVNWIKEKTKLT

Cathepsin G = target: T3, Cathepsin G (Homo sapiens, UniProt P08311); test: Inhibition of human cathepsin G using Suc-AAPF-MCA as substrate after 30 mins
T3 sequence (P08311 whole entry): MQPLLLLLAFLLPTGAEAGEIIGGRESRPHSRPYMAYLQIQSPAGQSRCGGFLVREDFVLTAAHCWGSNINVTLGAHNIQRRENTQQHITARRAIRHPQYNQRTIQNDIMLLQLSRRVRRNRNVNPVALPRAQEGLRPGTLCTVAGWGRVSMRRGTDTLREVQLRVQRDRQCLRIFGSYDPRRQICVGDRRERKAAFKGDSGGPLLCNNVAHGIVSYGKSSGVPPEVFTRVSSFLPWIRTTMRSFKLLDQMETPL

Plasma kallikrein [8] = target: T4, Plasma kallikrein (Homo sapiens, UniProt P03952); test: Inhibition of plasma KLK (unknown origin) using Ac-NLTR-pNA as substrate after 30 mins
T4 sequence (P03952 20-390 limits assumed): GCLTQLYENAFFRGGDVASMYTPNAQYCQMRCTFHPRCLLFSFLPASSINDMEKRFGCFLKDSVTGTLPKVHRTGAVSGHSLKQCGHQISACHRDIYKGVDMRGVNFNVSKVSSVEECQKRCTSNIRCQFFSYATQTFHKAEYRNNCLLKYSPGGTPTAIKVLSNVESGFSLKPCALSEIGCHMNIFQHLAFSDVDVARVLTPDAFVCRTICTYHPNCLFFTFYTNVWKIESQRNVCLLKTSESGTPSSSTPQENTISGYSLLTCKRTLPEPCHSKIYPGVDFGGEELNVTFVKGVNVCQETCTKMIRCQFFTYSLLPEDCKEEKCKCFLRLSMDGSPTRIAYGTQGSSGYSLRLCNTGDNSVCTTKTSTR
T4 sequence (P03952 391-638 limits assumed): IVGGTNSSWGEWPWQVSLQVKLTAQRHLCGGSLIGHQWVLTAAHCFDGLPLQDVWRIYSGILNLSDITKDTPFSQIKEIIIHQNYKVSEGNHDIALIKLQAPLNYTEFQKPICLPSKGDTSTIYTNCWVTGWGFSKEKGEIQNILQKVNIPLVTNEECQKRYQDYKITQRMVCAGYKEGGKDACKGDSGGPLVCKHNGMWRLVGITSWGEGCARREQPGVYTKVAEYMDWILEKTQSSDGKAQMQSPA

Prothrombin [9] = target: T5, Prothrombin (Homo sapiens, UniProt P00734); test: Inhibition of human thrombin using Ac-ATPR-pNA as substrate after 30 mins relative to untreated control
Coagulation factor X = Coagulation factor X (Homo sapiens, UniProt P00742); test: Inhibition of activated factor 10 (unknown origin) using Ac-QRSR-pNA as substrate after 30 mins relative to untreated control
Chain of Coagulation factor X (P00742 41-179 limits assumed): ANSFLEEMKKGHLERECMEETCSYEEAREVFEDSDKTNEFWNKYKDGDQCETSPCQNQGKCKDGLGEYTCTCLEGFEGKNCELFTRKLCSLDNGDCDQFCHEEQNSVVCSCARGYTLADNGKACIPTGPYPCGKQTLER
Chain of Coagulation factor X (P00742 235-488 limits assumed): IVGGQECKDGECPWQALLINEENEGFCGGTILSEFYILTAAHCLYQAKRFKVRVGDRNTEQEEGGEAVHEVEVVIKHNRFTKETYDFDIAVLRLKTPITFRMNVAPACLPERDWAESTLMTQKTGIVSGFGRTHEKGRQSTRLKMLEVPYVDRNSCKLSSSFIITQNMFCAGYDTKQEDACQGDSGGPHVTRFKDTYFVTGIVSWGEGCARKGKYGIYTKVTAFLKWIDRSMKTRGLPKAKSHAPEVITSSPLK

Serine protease 1 = target: T6, Serine protease 1 (Bos taurus, UniProt P00760); test: Inhibition of bovine cationic trypsin using Bz-FVR-pNA as substrate after 30 mins
T6 sequence (P00760 whole entry): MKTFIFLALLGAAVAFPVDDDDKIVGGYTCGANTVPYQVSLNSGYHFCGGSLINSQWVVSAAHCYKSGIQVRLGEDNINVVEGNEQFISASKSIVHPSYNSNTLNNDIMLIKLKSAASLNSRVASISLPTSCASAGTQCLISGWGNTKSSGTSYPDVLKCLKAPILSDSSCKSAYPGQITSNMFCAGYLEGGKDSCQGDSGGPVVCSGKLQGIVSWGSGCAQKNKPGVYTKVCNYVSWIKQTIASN

Coagulation factor XII [10] = target: T1, Coagulation factor XII; test: Inhibition of activated beta-factor 12 (unknown origin) using Ac-QRFR-pNA as substrate after 30 mins relative to untreated control
Prothrombin [11] = target: T5, Prothrombin; test: Inhibition of human thrombin using Ac-ATPR-pNA as substrate after 30 mins
[12] = target: Urokinase-type plasminogen activator (Homo sapiens, UniProt P00749); test: Inhibition of uPA (unknown origin) using Z-Pyr-Gly-Arg-MCA as substrate after 30 mins relative to untreated control
Plasminogen = Plasminogen (Homo sapiens, UniProt P00747); test: Inhibition of human plasmin using Ac-RM(O2)YR-pNA as substrate after 30 mins
Chain of Plasminogen (P00747 97-580 limits assumed): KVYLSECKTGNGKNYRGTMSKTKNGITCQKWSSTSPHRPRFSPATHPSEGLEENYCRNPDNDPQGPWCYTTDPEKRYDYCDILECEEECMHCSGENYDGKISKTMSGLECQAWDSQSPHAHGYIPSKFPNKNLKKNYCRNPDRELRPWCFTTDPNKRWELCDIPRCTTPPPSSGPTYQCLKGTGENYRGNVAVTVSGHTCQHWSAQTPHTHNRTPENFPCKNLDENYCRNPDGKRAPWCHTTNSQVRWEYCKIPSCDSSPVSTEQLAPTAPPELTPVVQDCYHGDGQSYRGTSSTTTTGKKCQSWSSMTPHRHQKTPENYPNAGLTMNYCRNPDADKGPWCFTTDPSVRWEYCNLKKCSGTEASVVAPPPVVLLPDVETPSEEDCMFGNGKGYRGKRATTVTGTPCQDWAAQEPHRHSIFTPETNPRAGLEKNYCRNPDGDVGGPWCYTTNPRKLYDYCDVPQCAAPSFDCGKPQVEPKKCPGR
Chain of Plasminogen (P00747 581-810 limits assumed): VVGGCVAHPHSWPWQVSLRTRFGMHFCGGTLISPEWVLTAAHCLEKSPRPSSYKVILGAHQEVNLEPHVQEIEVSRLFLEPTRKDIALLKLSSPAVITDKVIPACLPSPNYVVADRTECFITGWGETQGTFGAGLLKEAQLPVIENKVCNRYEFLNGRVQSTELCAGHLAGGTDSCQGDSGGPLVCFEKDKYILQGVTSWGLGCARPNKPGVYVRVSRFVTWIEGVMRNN

Coagulation factor XI [13] = target: T7, Coagulation factor XI (Homo sapiens, UniProt P03951); test: Inhibition of activated beta-factor 11 (unknown origin) using Bz-FVRpNA as substrate after 30 mins
T7 sequence (P03951 19-387 limits assumed): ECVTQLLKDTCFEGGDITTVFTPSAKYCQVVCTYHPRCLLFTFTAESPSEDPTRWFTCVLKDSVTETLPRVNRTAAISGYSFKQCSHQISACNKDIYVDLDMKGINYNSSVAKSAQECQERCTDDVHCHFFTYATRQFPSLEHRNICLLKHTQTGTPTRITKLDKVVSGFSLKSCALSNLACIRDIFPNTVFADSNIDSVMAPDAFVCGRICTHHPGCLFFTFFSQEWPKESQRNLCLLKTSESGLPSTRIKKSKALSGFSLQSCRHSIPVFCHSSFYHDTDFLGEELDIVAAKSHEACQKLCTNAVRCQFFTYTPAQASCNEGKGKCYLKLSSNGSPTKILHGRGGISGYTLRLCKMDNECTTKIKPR
T7 sequence (P03951 388-625 limits assumed): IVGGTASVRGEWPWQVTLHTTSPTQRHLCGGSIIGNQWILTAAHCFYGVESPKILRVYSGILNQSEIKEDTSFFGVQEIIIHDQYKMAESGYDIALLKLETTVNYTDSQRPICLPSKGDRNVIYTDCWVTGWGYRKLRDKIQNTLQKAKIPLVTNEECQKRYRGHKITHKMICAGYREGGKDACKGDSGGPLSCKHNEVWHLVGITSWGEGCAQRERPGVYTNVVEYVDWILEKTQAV

[14] = target: T2, Suppressor of tumorigenicity 14 protein; test: Inhibition of matriptase (unknown origin) using Boc-QAR-MCA as substrate after 30 mins relative to untreated control
Plasma kallikrein [15] = target: T4, Plasma kallikrein; test: Inhibition of plasma KLK (unknown origin) using Ac-NLTR-pNA as substrate after 30 mins relative to untreated control
Coagulation factor XI [16] = target: T7, Coagulation factor XI; test: Inhibition of activated beta-factor 11 (unknown origin) using Bz-FVRpNA as substrate after 30 mins relative to untreated control

CC[C@H](C)[C@@H]1NC(=O)[C@@H]2CCCN2C(=O)[C@@H]2CCCN2C(=O)[C@H]([C@@H](C)CC)NC(=O)[C@H](CO)NC(=O)[C@H](CCCCN)NC(=O)[C@H]([C@@H](C)O)NC(=O)[C@@H]2CSSC[C@H](NC1=O)C(=O)N[C@@H](Cc1ccccc1)C(=O)N1CCC[C@H]1C(=O)N[C@@H](CC(=O)O)C(=O)NCC(=O)N[C@@H](CCCNC(=N)N)C(=O)N2 showed a Ki [1] of 0.017 nM, a K (Trypsin (Sus scrofa) [2]) of 0.2 ×10⁷ /M/s and a Ki (Coagulation factor XII [3]) of 130 µM. It also gave a Ki [4] of 0.2 µM and a K (Trypsin (Sus scrofa) [5]) of 0.5 ×10⁻⁴ /s.

In the case of CC[C@H](C)[C@@H]1NC(=O)[C@@H]2CCCN2C(=O)[C@@H]2CCCN2C(=O)[C@H]([C@@H](C)CC)NC(=O)[C@H](CO)NC(=O)[C@H](CCCCN)NC(=O)[C@H](Cc2ccc(O)cc2)NC(=O)[C@@H]2CSSC[C@H](NC1=O)C(=O)N[C@@H](Cc1ccccc1)C(=O)N1CCC[C@H]1C(=O)N[C@@H](CC(=O)O)C(=O)NCC(=O)N[C@@H](CCCNC(=N)N)C(=O)N2 (HELM PEPTIDE1{C.F.P.D.G.R.C.Y.K.S.I.P.P.I}$PEPTIDE1,PEPTIDE1,1:R3-7:R3|PEPTIDE1,PEPTIDE1,1:R1-14:R2$$$V2.0), the Ki [6] is reported as over 50 µM, the Ki [7] is reported as 480 µM and the Ki (Coagulation factor IX) is reported as over 50 µM. For the same molecule, the Ki (Cathepsin G) was 7.8 µM, the Ki (Plasma kallikrein [8]) was 32 µM and the Ki (Prothrombin [9]) was 250 µM. The Ki (Coagulation factor X) was over 50 µM, the Ki (Serine protease 1) was 0.011 µM and the Ki (Coagulation factor XII [10]) was over 50 µM. For the same molecule, the Ki (Prothrombin [11]) was 250 µM, the Ki [12] was over 50 µM and the Ki (Plasminogen) was 0.14 nM. The Ki (Coagulation factor XI [13]) was 13 µM.

CC[C@H](C)[C@@H]1NC(=O)[C@@H]2CCCN2C(=O)[C@@H]2CCCN2C(=O)[C@H](CCCNC(=N)N)NC(=O)[C@H](CO)NC(=O)[C@H](CCCCN)NC(=O)[C@H](Cc2ccc(O)cc2)NC(=O)[C@@H]2CSSC[C@H](NC1=O)C(=O)N[C@@H](Cc1ccccc1)C(=O)N1CCC[C@H]1C(=O)N[C@@H](CC(=O)O)C(=O)NCC(=O)N[C@@H](CCCNC(=N)N)C(=O)N2 (HELM PEPTIDE1{C.F.P.D.G.R.C.Y.K.S.R.P.P.I}$PEPTIDE1,PEPTIDE1,1:R3-7:R3|PEPTIDE1,PEPTIDE1,1:R1-14:R2$$$V2.0) gave a Ki [6] of over 50 µM, a Ki (Coagulation factor IX) of over 50 µM and a Ki (Cathepsin G) of 13 µM. It also gave a Ki (Prothrombin [9]) of over 50 µM, a Ki (Coagulation factor X) of over 50 µM and a Ki (Serine protease 1) of 0.028 µM. It also gave a Ki (Coagulation factor XII [10]) of over 50 µM, a Ki [12] of over 50 µM and a Ki (Plasminogen) of 0.041 nM. The Ki [14] was over 50 µM, the Ki (Plasma kallikrein [15]) was over 50 µM and the Ki (Coagulation factor XI [16]) was over 50 µM.
